Entries after “also recorded” stand apart in the source; their conditions may differ.
Tests used:
[1] = system: S. aureus, P. aeruginosa, E. coli, C. albicans, A. niger; assay: Antimicrobial effectiveness (AME) testing, overall result; conditions: formulated in A195 buffer
[2] = system: adenovirus; assay: QPA assay for adenovirus infectivity (stability of adenovirus in formulation); type: cell-based, adenovirus serotype 5 (Ad5); conditions: for Ad5 stability in the presence of preservative: in A195 buffer with the preservative, short-term accelerated stability, infectivity assays
Description: QPA Assay for Adenovirus Infectivity—The compatibility of preservatives with adenovirus was assessed by measuring the infectivity adenovirus using QPA assay. The QPA assay is based on the finding that the quantity of replicating adenoviral genomes, upon infection of 293 cells, is proportional to the input quantity of infectious adenovirus 24 hours post-infection (P.I.). The accumulated adenoviral genomes are purified using Qiagen 96-well Blood DNA Extraction Kit 24 hrs P.I. and quantitated using Perkin-Elmer TaqMan PCR technology. A standard curve is constructed by using the TaqMan PCR cycle threshold (CT) reflecting the quantity of accumulated adenoviral genomes due to infection and subsequent replication as a function of the input viral infectivity of standard curve material that is determined by independent TCID50 potency assay. The infectivity of samples is interpolated from the standard curve. Infectivity can be determined within 48-72 hours using this procedure. To determine the loss of adenovirus infectivity in stability samples the infectivity of the stability sample and the corresponding −70° C. control of the same formulation are determined during the same QPA run and on the same PCR plate. The loss of infectivity in the stability samples is expressed as log loss of infectivity compared to the −70° C. control.
Results—Adenovirus was formulated in A195 buffer containing preservatives (i.e., the A500 series of Table 3). The infectivity of adenovirus was measured using a Q-PCR based Potency Assay (QPA) after storage at certain temperatures (2-8, 15, 20, 25, 30, and 37° C.) and compared to the control (corresponding sample stored at −70° C.). The stability of adenovirus was quantitatively presented as “Log Loss of Adenovirus Infectivity”. Variability of the QPA assay is reported to be +/−0.15 logs.

[3] = Solubility of preservative in A195 buffer; type: physicochemical

Structure (SMILES) | AME testing, overall result in words [1] | effects on the stability of adenovirus (log loss of infectivity, FIG. 1) ([2]; 0.5% (w/v) chlorobutanol or 0.2% (w/v) benzoic acid in A195 pH 6.8, MRKAd5pol 10^10 VP/ml, 37° C. 1-4 weeks vs −70° C.) | Ad5 stability in the presence of preservative [2] | solubility in A195 buffer [3]
CC(C)(C)CC(C)(C)c1ccc(OCCOCC[N+](C)(C)Cc2ccccc2)cc1 [benzethonium chloride] | effective antimicrobial preservatives | – | – | –
O=C(O)c1ccccc1 [benzoic acid] | failed AME testing | no significant effects | compatible with adenovirus; also recorded: compatible with Ad5 | –
OCc1ccccc1 [benzyl alcohol] | effective antimicrobial preservatives | – | very poor stability | –
Cc1cccc(O)c1 [m-cresol] | effective antimicrobial preservatives | – | – | poor solubility
Oc1ccccc1 [phenol] | effective antimicrobial preservatives | – | very unstable | –
